“And” between values parts separate entries of the source, which are not always exact repeats. Equal values may be shown once. “Also recorded” adds a separate entry of the source. Read-outs that look alike come from different tables or passages of the source.
How the values were obtained:
[1] = tested on: plasmid PC15 supercoiled DNA; assay: DNA unwinding assay (interference with DNA topoisomerase I-mediated unwinding; drug-DNA intercalation); assay type: biochemical; settings: for relative strength of drug-DNA intercalation (arbitrary scale): 0 = no intercalation, 9 = very strong intercalation
Excerpt: DNA unwinding assays were used to measure the ability of a test drug to interfere with DNA topoisomerase I-mediated unwinding of plasmid PC15 supercoiled DNA. DNA topoisomerase I controls the topology of double-stranded DNA and is itself not inhibited by DNA intercalating agents. Rather, intercalating agents cause distortion of the torsional angle between adjacent DNA strand components and thereby interfere with the ability of topoisomerase I to convert supercoiled DNA into relaxed forms. Accordingly, this assay is taken as the definitive test of drug-DNA intercalation.
Drugs were tested at 4 concentrations over a 125-fold concentration range. […] These compounds are 2-chloroethylurea derivatives of daunorubicin and adriamycin, respectively (i.e. not nitrosoureas, but chemical intermediates from which the nitrosoureas were derived).

[2] = tested on: murine P388/adriamycin-resistant leukemia; settings: Johnson et al. (1976); cited from earlier work
[3] = tested on: murine L1210 leukemia cells; assay: Clonogenic assay with cultured murine L1210 leukemia cells, 1 h drug exposure (LD90); assay type: cell-based; settings: for IC90: Mus musculus, L1210, 1 hr drug exposure, read-out: L1210 LD90 (dose killing 90% of clonogens)
Protocol: (§1) Culture and bioassay conditions were as described in Cancer Chemotherapy Pharmacology 20:277 (1987) "Comparative Effects of Adriamycin and DNA-nonbinding Analogues on DNA, RNA, and Protein Synthesis in Vitro", Israel et al., except that cell counts were determined by hemocytometer rather than by automated cell counting.
+Dose killing 90% of clonogens, 1hr. drug exposure.

murine P388 leukemia = settings: this protocol, cited from earlier work
murine L1210 lymphocytes = assay: DNA alkaline elution filter assay, DNA damage in murine L1210 lymphocytes; assay type: cell-based; settings: for pattern of DNA damage: L1210
Excerpt: (§2) By means of the DNA alkaline elution filter assay technique, it is possible to assess the nature of damage induced in DNA by exposure to drugs and other agents. Depending on the assay conditions, DNA lesions can be quantified as direct strand breaks, DNA-DNA interstrand crosslinks, and protein-associated strand breaks and crosslinks. The action of akylating-type drugs on DNA typically results in a predominant formation of direct DNA single-strand breaks and DNA-DNA crosslinks. DNA intercalating agents show a preponderance of protein-associated DNA damage, detectable as protein-associated single-strand breaks and DNA-protein crosslinks.
(§3) The nature of nitrosoureidoanthracycline-induced DNA damage in murine L1210 and human CLL lymphocytes was assessed by means of the alkaline elution filter technique. Murine L1210 leukemic lymphocytes, like P388/S lymphocytes, are known to contain high levels of topoisomerase II.
(§4) *All concentrations 1 μM, 1hr incubation. Each entry represents the
(§5) mean of at least two experiments, frequency per 10^6 nucleotides;
(§6) statistically significant increase above background underlined. DB, direc
(§7) (nonenzymatic) DNA breaks; PAB, proteinassociated DNA cleavage; DDCL,
(§8) interstrand DNA crosslinks; DPCL, DNAprotein crosslinks.

human CLL lymphocytes = assay: DNA alkaline elution filter assay, DNA damage in human CLL lymphocytes; assay type: cell-based
Excerpt: as §2, §3, §4, §5, §6, §7, §8
B-cell type lymphocytes freshly obtained from patients with chronic lymphocytic leukemia (CLL) show undetectable levels of topoisomerase II.

DNA topoisomerase II = assay: Drug-stimulated topoisomerase II-mediated DNA cleavage assay (end-labeled PMC41 DNA); assay type: biochemical; settings: for enhancement of topoisomerase II-mediated DNA cleavage: 625-fold concentration range
Excerpt: FIGS. 5A and 5B are a photographic reproduction of the results of drug-stimulated topoisomerase II-mediated DNA cleavage assays performed on various compounds, including compounds of the present invention.
DNA intercalation is a necessary but not a sufficient requirement for DNA topoisomerase II-mediated DNA cleavage. Accordingly, determination of drug-induced enzyme inhibition requires direct assay with isolated topoisomerase II. These assays involve determination of drug-enhanced topoisomerase II-mediated cleavage of PMC41 DNA appropriately end-labeled with [α-^32 P]dATP. As better seen in FIG. 5B, lane B, purified topoisomerase II, under the assay conditions, causes fragmentation of the DNA (background cleavage), as indicated by the radioautographic appearance of bands of cleaved DNA having differing mass values.

[4] = tested on: murine P388/adriamycin-resistant leukemia; assay: In vivo antitumor activity vs. murine P388/adriamycin-resistant leukemia (P388/ADR); settings: for increase in life span: P388/ADR in vivo, lack of response confirmed
Excerpt: (§9) Assays were run essentially according to the established protocols of the U.S. National Cancer Institute (Geran et al., 1972 "Protocols for Screening Chemical Agents and Natural Products Against Animal Tumors and Other Biological Systems" (3rd Ed.), Cancer Chemotherapy Rep. [3]33, 1-103.), with the test agent given at 3-5 incremental dose levels in each screening experiment and with median survival of treated groups referenced against data for untreated controls.
(§10) *B6D2F1 males; 1 × 10^6 tumor cell inoculum ip day 0; treatment

[5] = tested on: human CEM leukemic lymphocytes; assay: Growth inhibition of human CEM leukemic lymphocyte suspension cultures, 48 h continuous drug exposure (ID50); assay type: cell-based; settings: for IC50: Homo sapiens, Lymphocyte
Protocol: as §1

[6] = tested on: murine P388/adriamycin-resistant leukemia; settings: mouse, in vivo, ip
Excerpt: as §9, §10

[7] = Chemical stability / autodegradation to oxazolidinone (HPLC); assay type: physicochemical; settings: relative to adriamycin-derived products
Excerpt: FIGS. 2A and 2B are reproductions of HPLC printouts showing autodegration of N-2-chloroethylnitrosoureidoadriamycin.
Again, depending upon the specific compound, similar results were seen when compounds were exposed to aqueous media or even maintained in the dry state in a vacuum desiccator. Of importance, all daunorubicin urea and nitrosourea products, regardless of the specific alkyl or aryl substituent, afforded the same anthracycline degradation product; similarly, all adriamycin ureas and nitrosoureas afforded the same other degradation material.
Epirubicin (4'-epiadriamycin) is an example of such a starting material.

[8] = Solubility in water or saline; assay type: physicochemical
Protocol: Accordingly, the compounds are formulated for administration by dissolving the compound in a pharmaceutically acceptable non-toxic carrier which contains a surfactant. The present inventors employ a formulation of 10% Cremaphor EL (a polyhydroxylated castor oil derivative) available from BASF Chemicals, 10% ethanol and 80% aqueous media (sterile water or saline solution). That quantity of the compound desired for establishing an effective dose is dissolved in a 1:1 mixture of Cremaphor EL and ethanol. Thereafter, sufficient aqueous medium is added with stirring to develop a final formulation containing 80% aqueous medium. This formulation is administered parenterally.

[9] = L1210, 1 μM, 1 hr incubation, 0 hr after treatment
[10] = CLL, 1 μM, 1 hr incubation, 0 hr after treatment
[11] = suspension culture, 48 hr continuous drug exposure (Table 3), read-out: CEM, ID50 (50% growth-inhibitory concentration)

For `COc1cccc2c1C(=O)c1c(O)c3c(c(O)c1C2=O)C[C@@](O)(C(=O)CO)C[C@@H]3O[C@H]1C[C@H](N)[C@H](O)[C@H](C)O1` [Adriamycin, adriamycin, reference compound], the “relative strength of drug-DNA intercalation (arbitrary scale)” value [1] is listed as 7, the “interference with topoisomerase I-mediated conversion of supercoiled DNA / intercalation” value ([1]; 4 concentrations, 125-fold range) is listed as “concentration-dependent ability to interfere with the conversion of supercoiled DNA to relaxed forms; also recorded: ability of increasing concentrations of adriamycin (positive control) to interfere with the conversion of supercoiled DNA to relaxed forms” and the “in vivo sensitivity of P388/ADR” value [2] is listed as “insensitive to adriamycin in vivo”. The IC90 [3] was 310 nM, the “longterm survivors, historical results” value (murine P388 leukemia; optimal dose 3.0 mg/kg) was “infrequent longterm survivors” and the “pattern of DNA damage” value (murine L1210 lymphocytes) was “significant amounts of protein-associated single-strand breaks, without producing much in the way of direct strand breaks and DNA-DNA interstrand cross-links”. For the same compound, the “DB, direct (nonenzymatic) DNA breaks” value (murine L1210 lymphocytes; [9]) was -0.1 frequency per 10^6 nucleotides, the “DD-CL, interstrand DNA crosslinks” value (murine L1210 lymphocytes; [9]) was 0.1 frequency per 10^6 nucleotides and the “pattern of DNA damage” value (human CLL lymphocytes; CLL B-cell lymphocytes) was “cannot be detected in these cells to any significant level”. For the same compound, the “DB, direct (nonenzymatic) DNA breaks” value (human CLL lymphocytes; [10]) was 0.1 frequency per 10^6 nucleotides, the “DD-CL, interstrand DNA crosslinks” value (human CLL lymphocytes; [10]) was 0.0 frequency per 10^6 nucleotides and the “DP-CL, DNA-protein crosslinks” value (human CLL lymphocytes; [10]) was 0.1 frequency per 10^6 nucleotides. The “PAB, protein-associated DNA cleavage” value (human CLL lymphocytes; [10]) was 0.1 frequency per 10^6 nucleotides, the “enhancement of topoisomerase II-mediated DNA cleavage” value (DNA topoisomerase II) was “at low concentrations adriamycin enhances DNA fragmentation” and the “concentration at which background cleavage is eliminated” value (DNA topoisomerase II; and higher) was ≥ 4.6 μM and ≥ 2.5 μg/ml. For the same compound, the “increase in life span” value [4] was 0% and the IC50 [5, 11] was 55 nM.
In the case of `COc1cccc2c1C(=O)c1c(O)c3c(c(O)c1C2=O)C[C@@](O)(C(C)=O)C[C@@H]3O[C@H]1C[C@H](N)[C@H](O)[C@H](C)O1` [Daunorubicin, daunorubicin], the “relative strength of drug-DNA intercalation (arbitrary scale)” value [1] is listed as 7, the “in vivo sensitivity of P388/ADR” value [2] is listed as “cross-resistant to daunorubicin” and the IC90 [3] is listed as 900 nM. For the same compound, the “Net mean percent weight change, day 7” value ([6]; 2 mg/kg) was -0.5%, the “Net mean percent weight change, day 7” value ([6]; 3 mg/kg) was -7% and the “Net mean percent weight change, day 7” value ([6]; 4 mg/kg) was -7%. For the same compound, the “Net mean percent weight change, day 7” value ([6]; 12 mg/kg) was -13%, the “Net mean percent weight change, day 7” value ([6]; 15 mg/kg) was -13% and the “Net mean percent weight change, day 7” value ([6]; 18 mg/kg) was -28%. The “ILS, historical results” value (murine P388 leukemia; optimal dose 2.0 mg/kg) was “+75 - +100%”, the “longterm survivors, historical results” value (murine P388 leukemia; optimal dose 2.0 mg/kg) was “no longterm survivors” and the “toxicity flag” value ([4]; 18.0 mg/kg, d1 only) was “Toxic”. The “increase in life span” value [4] was 0%, the Long-term survivors ([4]; ip, 1.0 mg/kg qd 1-4) was 0/6 and the “Median increase in lifespan” value ([4]; ip, 1.0 mg/kg qd 1-4) was “+9%”. The Median survival ([4]; ip, 1.0 mg/kg qd 1-4) was 12 days, the “Net mean percent weight change, day 7” value ([4]; ip, 1.0 mg/kg qd 1-4) was “+20%” and the “Range of death (dying animals)” value ([4]; ip, 1.0 mg/kg qd 1-4) was 11 to 12 days. For the same compound, the Long-term survivors ([4]; ip, 2.0 mg/kg qd 1-4) was 0/7, the “Median increase in lifespan” value ([4]; ip, 2.0 mg/kg qd 1-4) was 0% and the Median survival ([4]; ip, 2.0 mg/kg qd 1-4) was 11 days. The “Range of death (dying animals)” value ([4]; ip, 2.0 mg/kg qd 1-4) was 11 to 12 days, the Long-term survivors ([4]; ip, 3.0 mg/kg qd 1-4) was 0/7 and the “Median increase in lifespan” value ([4]; ip, 3.0 mg/kg qd 1-4) was 0%. The Median survival ([4]; ip, 3.0 mg/kg qd 1-4) was 11 days, the “Range of death (dying animals)” value ([4]; ip, 3.0 mg/kg qd 1-4) was 10 to 12 days and the Long-term survivors ([4]; ip, 4.0 mg/kg qd 1-4) was 0/7. For the same compound, the “Median increase in lifespan” value ([4]; ip, 4.0 mg/kg qd 1-4) was -9%, the Median survival ([4]; ip, 4.0 mg/kg qd 1-4) was 10 days and the “Range of death (dying animals)” value ([4]; ip, 4.0 mg/kg qd 1-4) was 9 to 12 days. For the same compound, the Long-term survivors ([4]; ip, 12.0 mg/kg d1 only) was 0/7, the “Median increase in lifespan” value ([4]; ip, 12.0 mg/kg d1 only) was 0% and the Median survival ([4]; ip, 12.0 mg/kg d1 only) was 10 days. For the same compound, the “Range of death (dying animals)” value ([4]; ip, 12.0 mg/kg d1 only) was 9 to 11 days, the Long-term survivors ([4]; ip, 15.0 mg/kg d1 only) was 0/7 and the “Median increase in lifespan” value ([4]; ip, 15.0 mg/kg d1 only) was 0%. The Median survival ([4]; ip, 15.0 mg/kg d1 only) was 10 days, the “Range of death (dying animals)” value ([4]; ip, 15.0 mg/kg d1 only) was 8 to 11 days and the Long-term survivors ([4]; ip, 18.0 mg/kg d1 only) was 0/7. The Median survival ([4]; ip, 18.0 mg/kg d1 only) was 8 days, the “Range of death (dying animals)” value ([4]; ip, 18.0 mg/kg d1 only) was 6 to 9 days and the “Median increase in lifespan” value ([4]; ip, 18.0 mg/kg d1 only, ** Toxic) was -20%. The IC50 [5, 11] was 30 nM.
For `COc1cccc2c1C(=O)c1c(O)c3c(c(O)c1C2=O)C[C@@](O)(C(=O)CO)C[C@@H]3O[C@H]1C[C@H](NC(=O)N(CCCl)N=O)[C@@H](O)[C@H](C)O1` [AD 392, 2-chloroethylnitrosoureidoepirubicin], the “clonogenic cell kill” value ([3]; L1210, 1 hour exposure) was “essentially equipotent”, the IC90 [3] was 530 nM and the “pattern of DNA damage” value (murine L1210 lymphocytes) was “pattern of DNA damage consistent with both topoisomerase II inhibition and DNA-alkylatingaction”. For the same compound, the “enhancement of topoisomerase II-mediated DNA cleavage” value (DNA topoisomerase II) was “no saturation of background cleavage”, the “DNA topoisomerase II-inhibitory and alkylating activity” value (DNA topoisomerase II; summary of biochemical studies) was “clearly establish the DNA topoisomerase II-inhibitory activity and alkylating activity” and the “chemical stability / tendency to decompose to oxazolidinone” value [7] was “improved chemical stability”. For the same compound, the “potency compared to adriamycin (more potent)” value [5] was 10 fold, the “growth inhibitory activity” value ([5]; CEM in vitro) was “almost identical in vitro biological properties; also recorded: moderate to marked growth inhibitory activity” and the IC50 ([5]; CEM, 48 hr continuous drug exposure (Table 2), read-out: ID50 (the source's name)) was 5 nM. The “solubility” value ([8]; water or saline solution) was “essentially insoluble in water or saline solution” and the solubility ([8]; water, of the order of, read-out: solubility in water) was under 25 µg/mL.
